In US8581584B2, “Membrane proteins, mechanisms of action and uses thereof” (priority 2010, dated 2013):

Biological target: M2 conductance domain (residues 22-62) (Influenza A virus, UniProt P0DOF5, C50S)
Type: biochemical, influenza A Udorn/1972 virus

With `NC12CC3CC(CC(C3)C1)C2` [amantadine] as the compound, how does the “blockage of proton uptake” value read?
The value was roughly 80%.

And the “proton flux, initial slope of proton uptake per tetramer vs time” value?
The value was 30 protons per tetramer per second.
